We go through nine compounds from patent US5683713A, “Pharmaceutical compositions for topical application” (priority 1993, dated 1997).

Where two headings read alike, the source gives them in different places.

The conditions of data set [1]: prior art; cited from earlier work.
For data set [2] the following is noted: across human skin; cited from earlier work.
Data set [3] is described as follows: Skin irritation / tolerability. The settings on record: thioglycolate esters and amides.
For data set [4] the following is noted: 6-carboxylfluorescein, rats; pretreatment of the skin with 4% calcium thioglycolate; cited from earlier work.
The conditions of data set [5]: not told; cited from earlier work.
Data set [6] is described as follows: In-vitro demonstration of the reaction: conversion of cystine into cysteine, followed by TLC. The settings on record: after 6 hours; room temperature, water pH 7.2, under nitrogen. On the procedure:
A test was made to check whether the presence of a thioglycolate ester will cause conversion of Cystine into Cysteine: [drawing 1]
In a three necked flask (100 ml), under nitrogen were added 10 ml of water (pH 7.2), 200 mg cystine and 200 mg, of iso-octyl thioglycolate and stirred at room temperature for 24 hours. The reaction was followed by TLC using Silica-Gel precoated plates. As an eluant a mixture of BuOH:H2 O:AcOH in a 10:1:5 ratio respectively was used. The plates were developed by spraying a solution of 5% Ninhydrine in ethanol and heating. […] A control experiment was made under the same conditions but without the Thioglycolate ester. After 20 hours at room temperature no cysteine could be detected.

As to `CC(C)=O` [acetone], the irritation result in data set [1] is “cause irritation and edema”.

`OCCS` [2-Mercaptoethanol]: in data set [1], the irritation result was “very strong irritants”.

`CCCCCCCCCC[S+](C)[O-]` (stereo not shown) [decyl methyl, sulfoxide]: the “penetration of sodium methotrexate” value in data set [2] is recorded as “enhances the penetration of sodium methotrexate across human skin”. Besides, the toxicological problems entry in data set [1] is listed as “creates toxicological problems”.

For the compound `CCOC(=O)CS` [ethyl thioglycolate], the irritation entry in data set [3] is recorded as “irritants”.

Consider tetralinhydrofurfuryl alcohol, for which the irritation entry in data set [1] was “cause irritation and edema”.

On to `O=C(O)CS` [calcium thioglycolate], for which, in data set [4], the “increase of penetration as compared to the control” value was 9 times.

Take `C[S+](C)[O-]` [Dimethyl sulfoxide]: in data set [5], the “concentration needed for significant permeation enhancement” value was more than 70%.

As to `COC(=O)CS` [methyl thioglycolate], the irritation entry in data set [3] is on record as “irritants”.

For the compound `CC(C)CCCCCOC(=O)CS` [iso-octyl thioglycolate, Iso-octyl thioglycolate], in data set [6], the “conversion of cystine to cysteine (TLC spot)” value is “a spot corresponding to cysteine was formed and this spot grew as a function of time”.
